Results as given in patent US6662040B1, “Methods of photoacoustic imaging” (Amersham Health AS, priority 1997, dated 2003).

Experiments:
[1] = cited from earlier work
HT-29 tumors = test: Comparative biodistribution in mice containing HT-29 tumors; type: in vivo, female immunodeficient mice; conditions: for detection in the tumor: PBS solution
From the text: (§1) FIG. 1a is a graph of comparative biodistribution data of contrast agent NC100448 versus indocyanine green as control in female immunodeficient mice containing HT-29 tumors at one hour post intravenous injection of phosphate buffered saline solutions of each.
as §1, with “1b” for “1a”, “three hours” for “one hour”, “each. […] Relative to FIG. 1a, the concentration of the contrast agent in the tumor has increased while the concentration in the blood has decreased.” for “each.”
Biodistribution results are presented in FIGS. 1a (one hour post-dosing) and 1b (three hours post-dosing).

[2] = Photoacoustic imaging with infrared radiation in mice; type: in vivo, hairless, immunocompetent mice; conditions: 100 μl i.v. tail vein of 4.6 mg/ml in PBS, 750 nm alexandrite laser, immediately following injection
Description: The dry contrast agent (4.6 mg) was dissolved immediately before use in 1 ml phosphate buffered saline (Delbecco's buffer). The solution was doubly filtered through a syringe filter with a pore size of 0.45 μm and then was stored in the dark before injection.
The test animals were hairless, immunocompetent mice weighing about 23 g, which were anaesthetized I. m. with 5 μl xylazine (Rompun) and 10 μl ketamine prior to the measurements.
The irradiating light was produced by an alexandrite laser operating at a frequency of 750 nm. The light beam was attenuated with a neutral density filter so that the energy imparted by each pulse to the skin of the mice was less than 50 millijoules.
For imaging, the mouse rested on the lithium niobate acoustic transducer. The photoacoustic signal was detected after it passed to the opposite side of the mouse from incident radiation. The signal was detected after it passed through the body of the mouse to the opposite side from the point of irradiation.
Before injection of the contrast agent, the first mouse was positioned on its back on the transducer so as to maximize the internal signal when the skin above the liver was irradiated. […] The injected dose was 100 μl injected intravenously into the tail vein with a 26 gauge needle. Immediately following injection, the mouse was again positioned for a maximum signal.

[3] = not told
Description: Monochromatic X-rays with a photon energy of 20 to 30 keV are obtained with a double crystal monochromator using white X-rays from a sychrotron. The beam intensity is modulated by a rotating lead plate chopper with a frequency of 10 Hz. The sample chamber is a cylindrical cell with a volume of about 0.5 ml in a saline bath which has two beryllium windows. The photon flux into the sample chamber is measured with an ionization chamber placed in front.
The amplitude of the photoacoustic signal, normalized to the photon flux, is measured when the sample chamber contains the saline solution and when it contains a barium sulfate suspension.
The amplitude of the photoacoustic signal, normalized to the photon flux, is measured when the sample chamber contains the saline solution and when it contains a solution of iodixanol in PBS.

[4] = one hour post intravenous injection
[5] = three hours post intravenous injection

Oc1ccc2ccccc2c1N=Nc1ccc(N=Nc2ccccc2)cc1 [Sudan III]
solubility in sesame oil ([1]; sesame oil): soluble in sesame oil | solubility in water ([1]; water): very water insoluble

bis(thioether) 2:1 dye:polymer Reaction Product Between 2-[2-[2-chloro-3-[[1,3-dihydro-1,1,-dimethyl-3-(3-sulfopropyl)-2H-benz [e]indol-2-ylidene]ethylidene]-5-(ethoxycarbonyl)-1-cyclohexen-1-yl]ethenyl]-1,1-dimethyl-3-(3-sulfopropyl)-1H-benz[e]indolium, Inner Salt, Sodium Salt and Disodium PEG3,4000-α,ω-dithiolate [NC100448]
detection in the tumor (HT-29 tumors; [4]): detected in the tumor | concentration in the blood relative to FIG. 1a (one hour) (HT-29 tumors; [5]): decreased | concentration in the tumor relative to FIG. 1a (one hour) (HT-29 tumors; [5]): increased | detection in the tumor (HT-29 tumors; [5]): detected in the tumor | maximum detected signal from the blood vessels of the liver versus prior to injection [2]: 5 to 10 times larger

CC(=O)N(CC(O)CN(C(C)=O)c1c(I)c(C(=O)NCC(O)CO)c(I)c(C(=O)NCC(O)CO)c1I)c1c(I)c(C(=O)NCC(O)CO)c(I)c(C(=O)NCC(O)CO)c1I (stereo not shown) [iodixanol]
amplitude of the photoacoustic signal normalized to photon flux, versus saline solution [3]: larger

CC1(C)C(/C=C/C=C/C=C/C=C2\N(CCCCS(=O)(=O)O)c3ccc4ccccc4c3C2(C)C)=[N+](CCCCS(=O)(=O)[O-])c2ccc3ccccc3c21 [indocyanine green]
detection in the tumor (HT-29 tumors; [4]): negligibly detected | detection in the tumor (HT-29 tumors; [5]): negligibly detected
